For assay [1], the system named is cnidarian sting blistering inflammation. The assay is described as follows: Live jelly sting test, blistering inflammation. In kind it is in vivo.
The subject of another assay is hemolytic toxins. To be noted: 10 mM d-lactulose; cited from earlier work.
The subject of assay [2] is fire ant venom (Solenopsis invicta) induced hemolysis of human red blood cells (RBCs). In kind it is cell-based.
The test system of assay [3] is fire ant venom-induced hemolysis of RBCs. The assay is described as follows: Live time microscopic imaging of fire ant venom-induced hemolysis of RBCs. In kind it is cell-based, human. Particulars: 10 ng/μL fire ant venom, 1 μM copper gluconate, single dose.
Assay [4] has as its system live Alatina alata tentacles on human RBC agar. The assay is described as follows: RBC agar slide hemolysis by live Alatina alata tentacles. To be noted: 10 μM in agar slide, 2% fresh human RBC, 37° C., one hour. It is filed as cell-based. Here is the method:
2-20 mm sections of fresh live Alatina alata tentacles were placed on top of freshly prepared RBC agar slide (3% NuSieve GTG low melting agarose, 150 mM NaCl with 2% fresh human RBC). Slides were incubated at 37° C. for one hour. Zones of hemolysis are observed in control slide (FIG. 5, left) but not in slides prepared with 10 μM Copper Gluconate (3% NuSieve GTG low melting agarose, 150 mM NaCl, 10 μM Copper Gluconate with 2% fresh human RBC) (FIG. 5, right). A zone of hemolysis indicates lysis of the red blood cells.

Assay [5] has as its system box jellyfish venom (Alatina alata) induced hemolysis of human RBCs. The assay is described as follows: Inhibition of box jellyfish venom induced hemolysis of human RBCs. It is filed as cell-based. Particulars: for concentration at which active for box jellyfish venom inhibition: 5 units/mL/% RBC box jellyfish venom, 1 hour, 37° C., active at this concentration or greater.

Regarding `O=C(Nc1ccc(Cl)cc1)Nc1ccc(Cl)c(Cl)c1` [TCC, triclocarban], the “resolution of blistering inflammation” value in assay [1] (1% TCC in vanacreme, topical, untreated test lasted up to 72 hr) is “fully resolving the blistering inflammation”. In addition, the “time to resolve blistering inflammation” value in assay [1] (after application of a live jelly in a sting test) is at most 90 min.
As for `OC[C@H]1O[C@@H](O[C@@H]2[C@@H](CO)O[C@](O)(CO)[C@H]2O)[C@H](O)[C@@H](O)[C@H]1O` [d-lactulose], in the assay with hemolytic toxins, the hemolysis entry is on record as “dramatic absence of hemolysis”.
copper gluconate: in assay [2], the “concentration at which active for fire ant venom inhibition” value was “approximately 3 μM” and the “efficacy relative to zinc gluconate in the inhibition of ant venom” value is on record as “approximately 10,000 times”. The slowing of hemolysis in assay [3] came to 6 fold. Also, the “zones of hemolysis observed” value in assay [4] is recorded as “not”. In assay [5], the “potency relative to zinc gluconate alone in inhibiting box jellyfish venom” value is “approximately 10 times” and the “concentration at which active for box jellyfish venom inhibition” value is listed as “approximately 30 μM”.
As to zinc gluconate, in assay [2], the “concentration at which active for fire ant venom inhibition” value is given as “approximately 25 mM” and the “effect on hemolysis at early time points” value is “potently stimulated hemolysis”. In addition, in assay [5], the “concentration at which active for box jellyfish venom inhibition” value is recorded as “approximately 300 μM”.
